Measured values reported in patent US9938261B2, “Heterocyclic compounds and methods of use thereof” (AMBIT BIOSCIENCES CORPORATION, priority 2011, dated 2018).
Where two headings read alike, the source gives them in different places.

Columns and labels:
CSF1R [1] = biological target: T1, CSF1R (Homo sapiens, UniProt P07333); assay: HEK293 CSF1R phosphorylation MSD assay; type: cell-based; parameters: expressed in transfected cells; host or cells: HEK293; conditions: read-out: HEK293 pCSF1R M-CSF MSD:IC50
T1 sequence (P07333 20-972): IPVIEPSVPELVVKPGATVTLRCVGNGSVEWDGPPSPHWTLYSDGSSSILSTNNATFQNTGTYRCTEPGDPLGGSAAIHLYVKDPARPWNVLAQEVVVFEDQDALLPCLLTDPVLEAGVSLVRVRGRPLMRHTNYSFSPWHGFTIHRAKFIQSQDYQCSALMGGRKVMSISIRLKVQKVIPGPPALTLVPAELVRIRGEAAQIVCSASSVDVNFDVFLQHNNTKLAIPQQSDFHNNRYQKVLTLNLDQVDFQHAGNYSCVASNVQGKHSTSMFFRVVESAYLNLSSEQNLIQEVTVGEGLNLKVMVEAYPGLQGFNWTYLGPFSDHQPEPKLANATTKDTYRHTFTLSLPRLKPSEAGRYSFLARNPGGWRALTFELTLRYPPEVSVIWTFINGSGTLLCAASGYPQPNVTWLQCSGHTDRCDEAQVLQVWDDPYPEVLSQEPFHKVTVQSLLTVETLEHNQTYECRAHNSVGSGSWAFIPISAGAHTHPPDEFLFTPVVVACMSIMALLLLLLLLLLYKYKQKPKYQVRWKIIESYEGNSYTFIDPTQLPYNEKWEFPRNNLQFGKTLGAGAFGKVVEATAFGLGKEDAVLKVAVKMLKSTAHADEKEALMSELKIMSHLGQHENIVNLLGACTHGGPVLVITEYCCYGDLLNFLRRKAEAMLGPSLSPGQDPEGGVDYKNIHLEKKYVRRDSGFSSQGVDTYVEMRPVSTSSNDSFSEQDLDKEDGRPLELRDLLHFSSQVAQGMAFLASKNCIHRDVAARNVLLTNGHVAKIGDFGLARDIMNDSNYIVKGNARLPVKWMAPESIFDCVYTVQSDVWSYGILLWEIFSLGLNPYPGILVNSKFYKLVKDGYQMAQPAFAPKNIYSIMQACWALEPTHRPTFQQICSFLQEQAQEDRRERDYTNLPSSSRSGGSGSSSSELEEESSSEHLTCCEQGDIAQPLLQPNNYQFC
Procedure: The compounds disclosed herein were tested in a CSF1R phosphorylation assay to determine their cellular potency against CSF1R. A HEK293 cell line expressing CSF1R fused to FK506 binding protein (FKBP) as a molecular tag was generated. Inhibition of CSF1R kinase activity will prevent ligand-stimulated autophosphorylation of the CSF1R-FKBP in intact cells. Subsequent cell lysates are assayed in a sandwich ELISA employing the electrochemiluminescent Meso Scale Discovery (MSD) technology for the presence of the phosphorylated (p)CSF1R-FKBP. This assay determines the potency of compounds as CSF1R inhibitors by measuring the reduction in the amount of pCSF1R with increasing doses of compounds added to the cells prior to M-CSF stimulation.
On day one of the experiment, HEK293-CSF1R-FKPB cells, maintained in DMEM, with L-glutamine (Mediatech), 10% FBS, and 100 units/mL Penicillin/Streptomycin, were seeded at 50,000 cell/well in a volume of 100 μL per well in 96-well Cell Bind plates (Costar). The cells were cultured overnight at 37° C. under 5% CO2. To prepare the plates used in the MSD assay, a 330 nM biotin-FK506 (in TBS pH 7.2) solution was added at 30 μL per well to streptavidin-coated 96-well plates (MSD), and incubated overnight at room temperature, shaking at 500 rpm on an orbital shaker.
On day two, compounds diluted in DMSO were added to the cells in duplicate plates at 9 different concentrations with half-log intervals, plus DMSO only control, alongside a reference compound serving as a positive control. Final DMSO concentration was 0.5% in a volume of 200 μL per well. The compounds were allowed to incubate with the cells for 2 h at 37° C. under 5% CO2. At the end of the incubation, human M-CSF (R&D Systems) was added for 5 min to a final concentration of 50 ng/mL to stimulate CSF1R phosphorylation. Cells were lysed for 20 min, and the lysates were applied to the washed, FK506-coated MSD plates, and incubated overnight at 4° C. shaking at 500 rpm.
On day three, the MSD plates were washed, and the captured CSF1R-FKBP was assayed sequentially for phosphorylation using mouse anti-phosphotyrosine antibody (Millipore) and Sulfo-TAG goat anti-mouse IgG antibody (MSD), and detected on a Sector Imager 6000 instrument (MSD).
A single IC50 value for each compound was determined by averaging the IC50s of the duplicates calculated using Igor Pro 6 software, and represents the compound concentration that achieves a 50% inhibition of ligand-induced CSF1R phosphorylation compared to DMSO control.

KIT = biological target: T2, KIT (Homo sapiens, UniProt P10721); assay: Competition binding assay, KIT Kd
T2 construct: made in house
T2 sequence (P10721 26-976): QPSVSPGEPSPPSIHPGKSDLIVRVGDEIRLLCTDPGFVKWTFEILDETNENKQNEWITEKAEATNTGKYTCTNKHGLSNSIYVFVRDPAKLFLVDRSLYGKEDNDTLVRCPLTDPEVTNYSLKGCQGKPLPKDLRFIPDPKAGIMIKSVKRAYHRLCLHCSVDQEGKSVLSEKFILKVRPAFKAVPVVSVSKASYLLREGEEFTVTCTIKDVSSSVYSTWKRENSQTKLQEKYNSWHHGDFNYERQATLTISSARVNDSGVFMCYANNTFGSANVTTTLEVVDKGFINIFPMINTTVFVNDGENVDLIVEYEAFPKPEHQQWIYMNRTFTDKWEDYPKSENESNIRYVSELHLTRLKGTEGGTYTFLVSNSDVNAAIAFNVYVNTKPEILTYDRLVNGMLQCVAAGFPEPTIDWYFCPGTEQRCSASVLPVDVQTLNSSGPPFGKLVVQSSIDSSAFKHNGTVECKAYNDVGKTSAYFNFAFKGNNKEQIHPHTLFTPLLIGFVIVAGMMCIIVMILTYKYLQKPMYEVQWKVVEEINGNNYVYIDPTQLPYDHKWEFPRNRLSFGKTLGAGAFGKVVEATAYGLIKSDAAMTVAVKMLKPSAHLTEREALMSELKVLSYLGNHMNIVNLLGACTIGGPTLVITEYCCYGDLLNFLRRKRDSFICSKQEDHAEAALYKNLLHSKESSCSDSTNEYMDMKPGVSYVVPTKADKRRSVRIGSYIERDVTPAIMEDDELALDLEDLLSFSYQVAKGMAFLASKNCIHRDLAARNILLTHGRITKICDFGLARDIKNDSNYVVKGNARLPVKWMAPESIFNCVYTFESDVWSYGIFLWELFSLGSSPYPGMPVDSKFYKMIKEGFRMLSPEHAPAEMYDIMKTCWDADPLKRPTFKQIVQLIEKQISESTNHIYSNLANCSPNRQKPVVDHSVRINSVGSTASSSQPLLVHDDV
Procedure: (§1) Competition binding assays used herein were developed, validated and performed as described in Fabian et al., Nature Biotechnology 2005, 23, 329-336. Kinases were produced as fusions to T7 phage (See, Fabian et al. or WO04/015142) or alternatively, the kinases were expressed in HEK-293 cells and subsequently tagged with DNA for PCR detection (See, WO08/005310). For the binding assays, streptavidin-coated magnetic beads were treated with biotinylated affinity ligands for 30 min at room temperature to generate affinity resins. The liganded beads were blocked with excess biotin and washed with blocking buffer (SeaBlock (Pierce), 1% BSA, 0.05% Tween 20, 1 mM DTT) to remove unbound ligand and to reduce non-specific binding. Binding reactions were assembled by combining kinase, liganded affinity beads, and test compounds in 1× binding buffer (20% SeaBlock, 0.17×PBS, 0.05% Tween 20, 6 mM DTT). Test compounds were prepared as 100× stocks in DMSO and diluted into the aqueous environment. Kds were determined using an eleven point threefold serial dilutions. DMSO or control compounds were was added to control assays lacking a test compound. Primary screen assays were performed in polypropylene 384-well plates in a final volume of 20-40 μL, while Kd determinations were performed in polystyrene 96-well plates in a final volume of 135 μL. The assay plates were incubated at room temperature with shaking for 1 hour to allow the binding reactions to reach equilibrium, and the affinity beads were washed extensively with wash buffer (1×PBS, 0.05% Tween 20) to remove unbound protein. The beads were then resuspended in elution buffer (1×PBS, 0.05% Tween […] non-biotinylated affinity ligand) and incubated at room temperature with shaking for 30 min. The kinase concentration in the eluates was measured by quantitative PCR.

M-NFS-60 cells = assay: M-NFS-60 cell proliferation assay (Alamar Blue); type: cell-based, mouse; conditions: Mus musculus, read-out: CSF1R M-NFS-60 CTB:IC50
Procedure: The compounds disclosed herein were tested in an M-NFS-60 cell proliferation assay to determine their cellular potency against CSF1R. M-NFS-60s are mouse monocytic cells that depend on the binding of the ligand M-CSF to its receptor, CSF1R, to proliferate. Inhibition of CSF1R kinase activity will cause reduced growth and/or cell death. This assay assesses the potency of compounds as CSF1R inhibitors by measuring the reduction of Alamar Blue reagent by viable cells.
On day one of the experiment, M-NFS-60 cells were maintained in RPMI complete medium (Omega Scientific) plus 10% FBS supplemented with 20 ng/mL of M-CSF (R&D Systems). 96-well TC-treated, flat bottom plates were seeded at 10,000 cell/well at a volume of 100 μL per well. The cells were cultured overnight at 37° C. under 5% CO2.
On day two, compounds were added to the cells at 9 different concentrations, with half-log intervals alongside a control reference compound serving as a positive control. Final DMSO concentration was kept at 0.5% for a final volume of 200 μL. The compounds were allowed to incubate with the cells for 72 hours at 37° C. under 5% CO2.
On day five of the experiment, 40 μl of Alamar Blue reagent was added to each well and allowed to incubate for 3 hours. Alamar Blue fluorescence was read using SoftMax Pro software at 560 nm (excitation) and 590 nm (emission). IC50s were generated as an average of duplicates and represents the concentration of test compound that achieves 50% inhibition of cellular proliferation compared to control.

FLT3 = biological target: T3, FLT3 (Homo sapiens, UniProt P36888); assay: Competition binding assay, FLT3 Kd
T3 construct: made in house
T3 sequence (P36888 27-993): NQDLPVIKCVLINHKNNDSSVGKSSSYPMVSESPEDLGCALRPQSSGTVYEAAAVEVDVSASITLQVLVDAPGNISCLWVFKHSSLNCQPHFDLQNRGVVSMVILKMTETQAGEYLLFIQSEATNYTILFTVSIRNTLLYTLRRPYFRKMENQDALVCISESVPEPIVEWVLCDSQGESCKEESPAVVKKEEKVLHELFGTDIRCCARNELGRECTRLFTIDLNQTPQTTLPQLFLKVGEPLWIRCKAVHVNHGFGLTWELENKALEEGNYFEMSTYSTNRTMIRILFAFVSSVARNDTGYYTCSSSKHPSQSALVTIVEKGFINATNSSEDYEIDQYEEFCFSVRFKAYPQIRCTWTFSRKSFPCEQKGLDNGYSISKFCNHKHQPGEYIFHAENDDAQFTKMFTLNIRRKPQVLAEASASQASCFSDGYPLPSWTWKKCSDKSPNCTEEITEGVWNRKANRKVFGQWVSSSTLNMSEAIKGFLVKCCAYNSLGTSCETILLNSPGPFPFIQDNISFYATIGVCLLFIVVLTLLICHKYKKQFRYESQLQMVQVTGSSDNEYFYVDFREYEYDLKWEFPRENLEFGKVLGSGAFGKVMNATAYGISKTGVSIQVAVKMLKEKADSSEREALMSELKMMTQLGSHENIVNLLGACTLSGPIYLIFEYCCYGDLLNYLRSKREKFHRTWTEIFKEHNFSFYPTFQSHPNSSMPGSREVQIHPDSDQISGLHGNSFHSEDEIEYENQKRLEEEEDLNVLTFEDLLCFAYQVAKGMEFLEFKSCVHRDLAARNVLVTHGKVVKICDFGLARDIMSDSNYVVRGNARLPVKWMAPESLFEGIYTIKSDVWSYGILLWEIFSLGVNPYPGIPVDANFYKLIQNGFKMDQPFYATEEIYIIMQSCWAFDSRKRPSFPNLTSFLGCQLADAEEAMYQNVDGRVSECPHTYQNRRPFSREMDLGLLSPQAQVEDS
Procedure: as §1

PDGFRβ = biological target: T4, PDGFRβ (Homo sapiens, UniProt P09619); assay: Competition binding assay, PDGFRβ Kd
T4 construct: made in house
T4 sequence (P09619 33-1106): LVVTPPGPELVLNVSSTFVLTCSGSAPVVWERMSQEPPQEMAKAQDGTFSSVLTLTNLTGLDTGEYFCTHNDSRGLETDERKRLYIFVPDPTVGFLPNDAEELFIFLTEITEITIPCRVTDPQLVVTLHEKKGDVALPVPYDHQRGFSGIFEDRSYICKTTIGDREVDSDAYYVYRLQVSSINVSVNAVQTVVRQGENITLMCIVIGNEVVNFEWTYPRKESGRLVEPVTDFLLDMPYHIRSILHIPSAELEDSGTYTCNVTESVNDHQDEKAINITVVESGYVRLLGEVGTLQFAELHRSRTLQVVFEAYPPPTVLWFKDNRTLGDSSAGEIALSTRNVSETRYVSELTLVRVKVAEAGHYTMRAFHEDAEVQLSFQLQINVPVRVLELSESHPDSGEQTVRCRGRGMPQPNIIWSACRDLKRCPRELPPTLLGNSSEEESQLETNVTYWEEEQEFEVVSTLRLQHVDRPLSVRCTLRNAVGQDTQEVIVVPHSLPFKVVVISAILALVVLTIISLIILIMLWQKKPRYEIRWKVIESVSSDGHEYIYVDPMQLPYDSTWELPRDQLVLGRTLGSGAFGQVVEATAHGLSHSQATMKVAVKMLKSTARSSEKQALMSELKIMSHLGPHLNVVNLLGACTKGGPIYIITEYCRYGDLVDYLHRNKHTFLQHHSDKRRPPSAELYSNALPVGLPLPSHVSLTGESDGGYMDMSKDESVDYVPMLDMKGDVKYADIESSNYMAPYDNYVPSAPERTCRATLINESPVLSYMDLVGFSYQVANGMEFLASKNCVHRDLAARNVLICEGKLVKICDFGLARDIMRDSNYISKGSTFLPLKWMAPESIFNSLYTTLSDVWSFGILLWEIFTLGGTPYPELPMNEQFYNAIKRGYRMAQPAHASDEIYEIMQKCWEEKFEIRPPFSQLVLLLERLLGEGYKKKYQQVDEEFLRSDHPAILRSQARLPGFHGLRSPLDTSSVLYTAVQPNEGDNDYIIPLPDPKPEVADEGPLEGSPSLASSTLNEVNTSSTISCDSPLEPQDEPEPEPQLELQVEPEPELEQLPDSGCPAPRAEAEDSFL
Procedure: as §1

CSF1R [2] = biological target: T1, CSF1R; assay: Competition binding assay, CSF1R Kd; parameters: made in house
Procedure: as §1

[3] = 2 h compound, human M-CSF 50 ng/mL for 5 min
[4] = 72 hours incubation, M-CSF 20 ng/mL

| SMILES | IC50 (CSF1R [1]; [3]) [nM] | Kd (KIT) [nM] | Kd (FLT3) [nM] | Kd (PDGFRβ) [nM] | Kd (CSF1R [2]) [nM] | IC50 (CSF1R [1]; HEK293 cells, M-CSF stimulated CSF1R phosphorylation, MSD) [nM] | Kd (KIT; competition binding) [nM] | Kd (FLT3; competition binding) [nM] | Kd (PDGFRβ; competition binding) [nM] | Kd (CSF1R [2]; competition binding) [nM] | IC50 (M-NFS-60 cells; [4]) [nM] | IC50 (M-NFS-60 cells; M-NFS-60 cell proliferation) [nM] |
| --- | --- | --- | --- | --- | --- | --- | --- | --- | --- | --- | --- | --- |
| COc1cc2ncn(Cc3ccc4nc(NCc5ccncc5)sc4c3)c2cc1OC [Example 21, 6-((5,6-dimethoxy-1H-benzo[d]imidazol-1-yl)methyl)-N-(pyridin-4-ylmethyl)benzo[d]thiazol-2-amine] | 200 to 500 | > 2000 | > 5000 | > 2000 | > 50 | – | – | – | – | – | > 1500 | – |
| O[C@@H]1CCCC[C@H]1Nc1nc2ccc(Cn3cnc4cc(C5=CCOCC5)ccc43)cc2s1 [Example 174, (1R,2R)-2-((6-((5-(3,6-dihydro-2H-pyran-4-yl)-1H-benzo[d]imidazol-1-yl)methyl)benzo[d]thiazol-2-yl)amino)cyclohexanol] | – | – | – | – | – | ≤ 50 | ≤ 100 | ≤ 200 | ≤ 50 | ≤ 5 | – | ≤ 50 |
| COc1cc2ncn(Cc3ccc4nc(N[C@@H]5CCCC5O)sc4c3)c2cc1OC (stereo in doubt) [Example 20, (1R,2R)-2-((6-((5,6-dimethoxy-1H-benzo[d]imidazol-1-yl)methyl)benzo[d]thiazol-2-yl)amino)cyclopentanol] | 200 to 500 | > 2000 | 1000 to 5000 | > 2000 | 20 to 50 | – | – | – | – | – | > 1500 | – |
| Cn1cc(-c2nccn(Cc3ccc4nc(N[C@@H]5CCCC[C@H]5O)sc4c3)c2=O)cn1 [Example 103, 1-((2-(((1R,2R)-2-hydroxycyclohexyl)amino)benzo[d]thiazol-6-yl)methyl)-3-(1-methyl-1H-pyrazol-4-yl)pyrazin-2(1H)-one] | 50 to 200 | > 2000 | > 5000 | 50 to 500 | 5 to 20 | – | – | – | – | – | 50 to 400 | – |
| O[C@@H]1Cc2ccccc2[C@H]1Nc1nc2ccc(Cn3cnc4cncnc43)cc2s1 [Example 95, (1R,2R)-1-((6-((9H-purin-9-yl)methyl)benzo[d]thiazol-2-yl)amino)-2,3-dihydro-1H-inden-2-ol] | 50 to 200 | 500 to 2000 | > 5000 | ≤ 50 | ≤ 5 | – | – | – | – | – | 50 to 400 | – |
| CC(=O)c1ccc2ncn(Cc3ccc4nc(N[C@@H]5CCCC[C@H]5O)sc4c3)c2n1 [Example 88, 1-(3-((2-(((1R,2R)-2-hydroxycyclohexyl)amino)benzo[d]thiazol-6-yl)methyl)-3H-imidazo[4,5-b]pyridin-5-yl)ethanone] | 50 to 200 | ≤ 100 | 200 to 1000 | 50 to 500 | ≤ 5 | – | – | – | – | – | ≤ 50 | – |
| COc1cc2ncn(Cc3ccc4nc(N[C@H]5CCc6ccccc65)sc4c3)c2cc1OC [Example 11, (S)—N-(2,3-dihydro-1H-inden-1-yl)-6-((5,6-dimethoxy-1H-benzo[d]imidazol-1-yl)methyl)benzo[d]thiazol-2-amine] | 200 to 500 | 100 to 500 | 200 to 1000 | 50 to 500 | 5 to 20 | – | – | – | – | – | 400 to 1500 | – |

Now from value to molecule, other results behind:

| IC50 (CSF1R [1]; [3]) [nM] | Kd (KIT) [nM] | Kd (FLT3) [nM] | Kd (PDGFRβ) [nM] | Kd (CSF1R [2]) [nM] | IC50 (CSF1R [1]; HEK293 cells, M-CSF stimulated CSF1R phosphorylation, MSD) [nM] | Kd (KIT; competition binding) [nM] | Kd (FLT3; competition binding) [nM] | Kd (PDGFRβ; competition binding) [nM] | Kd (CSF1R [2]; competition binding) [nM] | SMILES | IC50 (M-NFS-60 cells; [4]) [nM] | IC50 (M-NFS-60 cells; M-NFS-60 cell proliferation) [nM] |
| --- | --- | --- | --- | --- | --- | --- | --- | --- | --- | --- | --- | --- |
| 50 to 200 | 100 to 500 | 1000 to 5000 | 50 to 500 | 5 to 20 | – | – | – | – | – | O[C@H]1CCCC[C@H]1Nc1nc2ccc(Cn3cnc4ccccc43)cc2s1 (racemic) [Example 1, 2-((6-((1H-benzo[d]imidazol-1-yl)methyl)benzo[d]thiazol-2-yl)amino)cyclohexanol] | 50 to 400 | – |
| 50 to 200 | 100 to 500 | 1000 to 5000 | 50 to 500 | ≤ 5 | – | – | – | – | – | COc1cc2ncn(Cc3ccc4nc(N[C@@H]5c6ccccc6C[C@H]5O)sc4c3)c2cc1OC [Example 19, (1R,2R)-1-((6-((5,6-dimethoxy-1H-benzo[d]imidazol-1-yl)methyl)benzo[d]thiazol-2-yl)amino)-2,3-dihydro-1H-inden-2-ol] | 50 to 400 | – |
| ≤ 50 | ≤ 100 | ≤ 200 | ≤ 50 | 5 to 20 | – | – | – | – | – | O[C@@H]1CCCC[C@H]1Nc1nc2ccc(Cn3cnc4ccc(Br)nc43)cc2s1 [Example 78, (1R,2R)-2-((6-((5-bromo-3H-imidazo[4,5-b]pyridin-3-yl)methyl)benzo[d]thiazol-2-yl)amino)cyclohexanol] | ≤ 50 | – |
